In patent US4981788A, “Novel acetylpolyamine amidohydrolase” (Kyowa Hakko Kogyo Co., Ltd., priority 1987, dated 1991):
“Also recorded” adds a separate entry of the source. Structures can show the parent of a compound that is named as a salt. Where two headings read alike, the source gives them in different places.

Tests used:
[1] = test system: E3: Enzyme derived from Micrococcus luteus; conditions: cited from earlier work
[2] = molecular target: T1, acetylpolyamine amidohydrolase (the present enzyme, partially purified product) (Mycoplana ramosa, UniProt Q48935); test: Effects of inhibitors and metal ions, partially purified present enzyme; type: biochemical, Mycoplana bullata; conditions: for inhibition at 1000 µM: read-out: Relative activity in presence of inhibitor/metal ion, the present enzyme; for Inhibition of the present enzyme (in words): partially purified product
T1 construct: novel acetylpolyamine amidohydrolase of the present invention accumulated within the grown cells; made in house; host or cells: Mycoplana (natural producer; cells grown in culture)
T1 sequence (Q48935 1-341): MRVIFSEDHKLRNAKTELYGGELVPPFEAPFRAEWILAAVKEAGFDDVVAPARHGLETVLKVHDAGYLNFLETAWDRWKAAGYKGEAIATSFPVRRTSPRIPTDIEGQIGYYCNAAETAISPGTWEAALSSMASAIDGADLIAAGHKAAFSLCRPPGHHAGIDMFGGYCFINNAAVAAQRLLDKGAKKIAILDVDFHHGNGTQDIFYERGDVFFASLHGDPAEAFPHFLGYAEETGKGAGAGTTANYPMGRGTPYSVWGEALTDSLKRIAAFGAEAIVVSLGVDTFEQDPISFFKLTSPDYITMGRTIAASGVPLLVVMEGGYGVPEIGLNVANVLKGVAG
Protocol: Activity of the present enzyme (partially purified products) is measured according to the following procedure. That is, 0.1 ml of an enzyme solution is added to a reagent solution consisting of 1.5 ml of 0.1 M phosphate buffer (pH 7.0), 0.05 ml of 50 mM acetylpolyamine, 0.4 U of putrescine oxidase (when acetylputrescine, acetylcadaverine or acetylspermidine is used as substrate) or polyamine oxidase (when acetylspermidine or acetylspermine is used as substrate), 0.5 ml of 2.4 mM 4-aminoantipyrine, 0.5 ml of 42 mM phenol and 20 U of peroxidase. The mixture is incubated at 37° C., and the absorbance of quinoneimine pigment formed at 500 nm is measured.
The effects of various inhibitors and metal ions upon the present enzyme and the other known enzymes were examined using acetylputrescine as substrate.

[3] = molecular target: T2, acetylpolyamine amidohydrolase (the present enzyme, product purified to homogeneity) (Mycoplana ramosa, UniProt Q48935); test: Effects of various compounds upon enzyme activity, product purified to homogeneity (Method 1); type: biochemical, Mycoplana bullata; conditions: for activity at 100 µM: read-out: Relative Activity (%) at 0.1 mM
T2 construct: novel acetylpolyamine amidohydrolase of the present invention accumulated within the grown cells; made in house; host or cells: Mycoplana (natural producer)
T2 sequence (Q48935 1-341): T1 sequence (Q48935 1-341)
Excerpt: [Method 1] (Standard assay)
In this standard method for measuring the activity of acetylpolyamine amidohydrolases, the enzyme being tested is allowed to react with acetylputrescine as substrate to produce putrescine, which is in turn oxidized with putrescine oxidase. Hydrogen peroxide thus formed is then subjected to oxidative condensation with phenol and 4-aminoantipyrine in the presence of horseradish peroxidase to form quinoneimine pigment. The rate of increase in the absorbance of a colored reaction solution at 500 nm is measured with a spectrophotometer.
The above reagents, (b) through (h), were put in a cuvette (d: 1.0 cm) and the mixture was preincubated at 37° C. for 2 minutes. The substrate solution (a) was then added and the resulting mixture was held at 37° C., absorbance at 500 nm was measured over a period of 3 to 5 minutes, and the change in absorbance per minute (ΔODsample) was determined from the linear portion of the plotted curve. For control, the same procedure as above was carried out, using distilled water as reference.
One unit of acetylpolyamine amidohydrolase is defined as its amount necessary to hydrolyze 1 μmole of acetylputrescine at 37° C. for one minute (or the amount necessary to form 0.5 μmole of quinoneimine pigment formed in the method for measuring the enzyme activity described above).
To 50 mM Tris-HCl buffer (pH 7.0) containing the present enzyme, was added each of the compounds being tested to a concentration of 0.1 mM or 1.0 mM. The mixture was incubated at 37° C. for 10 minutes, a sample solution was taken out, and its residual activity was measured according to the procedure described in [Method 1].

[4] = test system: E1: Enzyme derived from Streptomyces avellaneus; conditions: concentration of 1mM; acetylputrescine as substrate; cited from earlier work
[5] = test system: E2: Enzyme derived from Arthrobacter sp.; conditions: concentration of 1mM; acetylputrescine as substrate; cited from earlier work
[6] = compound 0.1 mM, 50 mM Tris-HCl pH 7.0, 37° C., 10 minutes, residual activity
[7] = compound 1.0 mM, 50 mM Tris-HCl pH 7.0, 37° C., 10 minutes, residual activity
[8] = concentration of 1mM, acetylputrescine as substrate
[9] = concentration of 1mM, acetylputrescine as substrate, no addition = 100%
[10] = compound 1.0 mM, 50 mM Tris-HCl pH 7.0, 37° C., 10 minutes, residual activity, read-out: Relative Activity (%) at 1.0 mM

Row | Structure (SMILES) | Relative Activity (%) at 1.0 mM [3, 7] [%] | Inhibition of the present enzyme (in words) ([3]; purified to homogeneity) | Relative activity in presence of inhibitor/metal ion, E3 [1, 8] [%] | Relative activity in presence of inhibitor/metal ion, the present enzyme [2, 9] [%] | Relative activity in presence of inhibitor/metal ion, E1 [4] [%] | Relative activity in presence of inhibitor/metal ion, E2 [5] [%] | also measured
1 | Oc1cccc2cccnc12 [8-Hydroxyquinoline] |  |  |  |  |  |  | Relative activity in presence of inhibitor/metal ion, E3 [1]: 98; Relative activity in presence of inhibitor/metal ion, the present enzyme [2]: 3; Inhibition of the present enzyme (in words) [3]: considerably inhibited; Relative Activity (%) at 0.1 mM ([3]; pH 7): 57%; Relative Activity (%) at 1.0 mM ([3]; pH 7): 66%
2 | O=[N+]([O-])[O-].[Ag+] [AgNO3] | 41 | inhibited |  |  |  |  | Relative Activity (%) at 0.1 mM [3, 6]: 107%
3 | [Cl-].[Cl-].[Co+2] [CoCl2] | 105 |  |  |  |  |  | 
4 | [Cu+2] [Cu^2+] |  |  | 26 | 99 |  |  | 
5 | CCN(CC)C(=S)S [DDC, Diethyldithiocarbamate] |  |  |  |  |  |  | inhibition at 1000 µM [2, 9]: 0%; activity at 100 µM [3, 6]: 93%; activity at 1000 µM [3, 10]: 94%
6 | O=C(O)CN(CCN(CC(=O)O)CC(=O)O)CC(=O)O [EDTA · 2Na] |  |  |  |  |  |  | Inhibition of the present enzyme (in words) [3]: no inhibitory action; activity at 1000 µM ([3]; pH 7, read-out: Relative Activity (%) at 1.0 mM): 97%
7 | NO [Hydroxylamine] |  |  |  | 24 |  |  | 
8 | [Cl-].[Cl-].[Mg+2] [MgCl2] | 85 |  |  |  |  |  | Relative Activity (%) at 0.1 mM [3, 6]: 87%
9 | [Mg+2] [Mg^2+] |  | inhibited | 99 | 97 | 104 | 112 | 
10 | [Mn+2] [Mn^2+] |  |  | 50 | 124 | 82 | 101 | 
11 | [N-]=[N+]=[N-].[Na+] [NaN3] | 95 |  | 98 | 90 | 93 | 99 | 
12 | [Cl][Ni][Cl] [NiCl2] | 90 |  |  |  |  |  | 
13 | [Ni+2] [Ni^2+] |  |  | 33 | 81 | 3 | 55 | Inhibition of the present enzyme (in words) [2]: hardly inhibited
14 | O=S(=O)(F)Cc1ccccc1 [Phenylmethanesulfonyl fluoride] | 90 | slightly inhibited |  |  |  |  | Relative Activity (%) at 0.1 mM [3, 6]: 86%
15 | NNC(N)=O [Semicarbazide hydrochloride] |  |  |  |  |  |  | activity at 100 µM [3, 6]: 103%; activity at 1000 µM [3, 10]: 91%
16 | [Cl-].[Cl-].[Zn+2] [ZnCl2] | 22 |  |  |  |  |  | Relative Activity (%) at 0.1 mM [3, 6]: 1%
17 | [Zn+2] [Zn^2+] |  | inhibited; also recorded: most remarkably | 4 | 100 | 3 | 32 | Inhibition of the present enzyme (in words) [2]: hardly inhibited
18 | c1ccc(-c2ccccn2)nc1 [a,a'-Dipyridyl] |  |  |  |  |  |  | activity at 1000 µM [3, 10]: 92%
19 | c1cnc2c(c1)ccc1cccnc12 [o-Phenanthroline] |  | no inhibitory action | 33 |  | 14 | 94 | inhibition at 1000 µM [2, 9]: 68%; activity at 1000 µM [3, 10]: 95%
20 | O=C(O)c1cc[c]([Hg][Cl])cc1 [pCMB, -p(Chloromercuri)benzoic acid] | 90 | slightly inhibited | 98 | 4 | 0 | 8 | Relative Activity (%) at 0.1 mM [3, 6]: 107%
